This passage reports IC50 results from patent publication US20240217978A1 (CHONG KUN DANG PHARMACEUTICAL CORP., priority 2021, published 2024).

Sequence of human adenosine A2a receptor (P29274 whole entry): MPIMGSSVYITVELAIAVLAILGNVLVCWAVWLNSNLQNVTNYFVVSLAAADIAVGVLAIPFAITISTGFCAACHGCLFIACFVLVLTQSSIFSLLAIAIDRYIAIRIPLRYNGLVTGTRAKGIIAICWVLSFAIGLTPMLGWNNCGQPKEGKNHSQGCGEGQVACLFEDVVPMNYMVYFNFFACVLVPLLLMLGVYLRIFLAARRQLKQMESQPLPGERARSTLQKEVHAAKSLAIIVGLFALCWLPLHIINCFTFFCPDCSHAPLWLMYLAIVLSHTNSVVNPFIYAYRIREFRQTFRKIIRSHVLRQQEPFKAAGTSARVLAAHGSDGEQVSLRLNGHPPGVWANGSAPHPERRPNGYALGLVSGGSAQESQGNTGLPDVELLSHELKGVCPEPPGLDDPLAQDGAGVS

For this assay, the target named is human adenosine A2a receptor (Homo sapiens (Human), UniProt P29274). Description: A2a receptor binding affinity, [3H]-NECA radioligand binding test. Particulars: [3H]-NECA 37 nM; membrane from HEK-293 cells transfected with human adenosine A2a receptor. In outline:
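IC50 values (μM) come from displacement of [3H]-NECA, used at 37 nM final, on human A2a receptor membranes from transfected HEK-293 cells. Incubation lasted one hour at room temperature in Tris/MgCl2/EDTA buffer, pH 7.4; filter-bound radioactivity was counted by scintillation.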
Compound `CCc1cccc(NC(=O)C2CCN(C(=O)[C@@H]3CCCN3c3nc(N)n4nc(-c5ccco5)nc4n3)CC2)c1` [Example 131, 1-((7-amino-2-(furan-2-yl)-[1,2,4]triazolo[1,5-a][1,3,5]triazin-5-yl)-L-prolyl)-N-(3-ethylphenyl)piperidin-4-carboxamide] gave a half-maximal inhibitory concentration (IC50) of 4 nM.

For `Nc1nc(N2CCC[C@H]2C(=O)N2CCC(C(=O)Nc3cccc(C(F)F)c3)CC2)nc2nc(-c3ccco3)nn12` [Example 132, 1-((7-amino-2-(furan-2-yl)-[1,2,4]triazolo[1,5-a][1,3,5]triazin-5-yl)-L-prolyl)-N-(3-(difluoromethyl)phenyl)piperidin-4-carboxamide], the IC50 came out at 11 nM. Under `CN(C(=O)C1CCN(C(=O)[C@@H]2CCCN2c2nc(N)n3nc(-c4ccco4)nc3n2)CC1)c1ccccc1` [Example 133, 1-((7-amino-2-(furan-2-yl)-[1,2,4]triazolo[1,5-a][1,3,5]triazin-5-yl)-L-prolyl)-N-methyl-N-phenylpiperidin-4-carboxamide] stands 11 nM; under `CN1CCN(C(=O)[C@@H]2CCCN2c2nc(N)n3nc(-c4ccco4)nc3n2)CC1` [Example 134, (S)-(1-(7-amino-2-(furan-2-yl)-[1,2,4]triazolo[1,5-a][1,3,5]triazin-5-yl)pyrrolidin-2-yl)(4-methylpiperazin-1-yl)methanone], 86 nM.

As to `CCCN1CCN(C(=O)[C@@H]2CCCN2c2nc(N)n3nc(-c4ccco4)nc3n2)CC1` [Example 135, (S)-(1-(7-amino-2-(furan-2-yl)-[1,2,4]triazolo[1,5-a][1,3,5]triazin-5-yl)pyrrolidin-2-yl)(4-propylpiperazin-1-yl)methanone], the IC50 is 24 nM. Take `CC(C)N1CCN(C(=O)[C@@H]2CCCN2c2nc(N)n3nc(-c4ccco4)nc3n2)CC1` [Example 136, (S)-(1-(7-amino-2-(furan-2-yl)-[1,2,4]triazolo[1,5-a][1,3,5]triazin-5-yl)pyrrolidin-2-yl)(4-isopropylpiperazin-1-yl)methanone]: the IC50 is 4 nM. Under `CC(C)(C)N1CCN(C(=O)[C@@H]2CCCN2c2nc(N)n3nc(-c4ccco4)nc3n2)CC1` [Example 137, (S)-(1-(7-amino-2-(furan-2-yl)-[1,2,4]triazolo[1,5-a][1,3,5]triazin-5-yl)pyrrolidin-2-yl)(4-(tert-butyl)piperazin-1-yl)methanone] stands 48 nM.

Compound `CCCCCN1CCN(C(=O)[C@@H]2CCCN2c2nc(N)n3nc(-c4ccco4)nc3n2)CC1` [Example 138, (S)-(1-(7-amino-2-(furan-2-yl)-[1,2,4]triazolo[1,5-a][1,3,5]triazin-5-yl)pyrrolidin-2-yl)(4-pentylpiperazin-1-yl)methanone] returned an IC50 of 2 nM. Consider `Nc1nc(N2CCC[C@H]2C(=O)N2CCN(C3CC3)CC2)nc2nc(-c3ccco3)nn12` [Example 139, (S)-(1-(7-amino-2-(furan-2-yl)-[1,2,4]triazolo[1,5-a][1,3,5]triazin-5-yl)pyrrolidin-2-yl)(4-cyclopropylpiperazin-1-yl)methanone], for which the IC50 came to 28 nM. Next, `CC(C)OCCN1CCN(C(=O)[C@@H]2CCCN2c2nc(N)n3nc(-c4ccco4)nc3n2)CC1` [Example 140, (S)-(1-(7-amino-2-(furan-2-yl)-[1,2,4]triazolo[1,5-a][1,3,5]triazin-5-yl)pyrrolidin-2-yl)(4-(2-isopropoxyethyl)piperazin-1-yl)methanone]: 10 nM; `COCCOCCN1CCN(C(=O)[C@@H]2CCCN2c2nc(N)n3nc(-c4ccco4)nc3n2)CC1` [Example 141, (S)-(1-(7-amino-2-(furan-2-yl)-[1,2,4]triazolo[1,5-a][1,3,5]triazin-5-yl)pyrrolidin-2-yl)(4-(2-(2-methoxyethoxy)ethyl)piperazin-1-yl)methanone]: 15 nM; `Nc1nc(N2CCC[C@H]2C(=O)N2CCC(C(=O)N3CCCCC3)CC2)nc2nc(-c3ccco3)nn12` [Example 142, (1-((7-amino-2-(furan-2-yl)-[1,2,4]triazolo[1,5-a][1,3,5]triazin-5-yl)-L-prolyl)piperidin-4-yl)(piperidin-1-yl)methanone]: 13 nM.

In turn, `CCCCN1CCN(C(=O)[C@@H](Nc2nc(N)n3nc(-c4ccco4)nc3n2)C(C)C)CC1` [Example 143, (S)-2-((7-amino-2-(furan-2-yl)-[1,2,4]triazolo[1,5-a][1,3,5]triazin-5-yl)amino)-1-(4-butylpiperazin-1-yl)-3-methylbutan-1-one] gave a half-maximal inhibitory concentration (IC50) of 20 nM. Next, `CC(C)[C@H](Nc1nc(N)n2nc(-c3ccco3)nc2n1)C(=O)N1CCN(CC(F)(F)F)CC1` [Example 144, (S)-2-((7-amino-2-(furan-2-yl)-[1,2,4]triazolo[1,5-a][1,3,5]triazin-5-yl)amino)-3-methyl-1-(4-(2,2,2-trifluoroethyl)piperazin-1-yl)butan-1-one]: 14 nM; `CN1CCN(C(=O)[C@@H]2CCCN2c2nc(N)n3nc(-c4ccco4)nc3n2)CC1=O` [Example 145, 4-((7-amino-2-(furan-2-yl)-[1,2,4]triazolo[1,5-a][1,3,5]triazin-5-yl)-L-prolyl)-1-methylpiperazin-2-one]: 13 nM. Under `COC1CCN(C(=O)[C@@H]2CCCN2c2nc(N)n3nc(-c4ccco4)nc3n2)CC1` [Example 146, (S)-(1-(7-amino-2-(furan-2-yl)-[1,2,4]triazolo[1,5-a][1,3,5]triazin-5-yl)pyrrolidin-2-yl)(4-methoxypiperidin-1-yl)methanone] stands 18 nM; under `CC(C)(F)CN1CCN(C(=O)[C@@H](Nc2nc(N)n3nc(-c4ccco4)nc3n2)C2CCCCC2)CC1` [Example 147, (S)-2-((7-amino-2-(furan-2-yl)-[1,2,4]triazolo[1,5-a][1,3,5]triazin-5-yl)amino)-2-cyclohexyl-1-(4-(2-fluoro-2-methylpropyl)piperazin-1-yl)ethan-1-one], 3 nM. Under `Nc1nc(N[C@H](C(=O)N2CCN(CC(F)(F)F)CC2)C2CCCCC2)nc2nc(-c3ccco3)nn12` [Example 148, (S)-2-((7-amino-2-(furan-2-yl)-[1,2,4]triazolo[1,5-a][1,3,5]triazin-5-yl)amino)-2-cyclohexyl-1-(4-(2,2,2-trifluoroethyl)piperazin-1-yl)ethan-1-one] stands 8 nM; under `Nc1nc(N2CCC[C@H]2C(=O)N2CCN(c3ccc(C(F)(F)F)cc3F)CC2)nc2nc(-c3ccco3)nn12` [Example 149, (S)-(1-(7-amino-2-(furan-2-yl)-[1,2,4]triazolo[1,5-a][1,3,5]triazin-5-yl)pyrrolidin-2-yl)(4-(2-fluoro-4-(trifluoromethyl)phenyl)piperazin-1-yl)methanone], 0.5 nM; under `Nc1nc(N2CCC[C@H]2C(=O)N2CCN(c3ccccc3C(F)(F)F)CC2)nc2nc(-c3ccco3)nn12` [Example 150, (S)-(1-(7-amino-2-(furan-2-yl)-[1,2,4]triazolo[1,5-a][1,3,5]triazin-5-yl)pyrrolidin-2-yl)(4-(2-(trifluoromethyl)phenyl)piperazin-1-yl)methanone], 0.1 nM.

With `Nc1nc(N2CCC[C@H]2C(=O)N2CCN(c3ccccc3)CC2)nc2nc(-c3ccco3)nn12` [Example 151, (S)-(1-(7-amino-2-(furan-2-yl)-[1,2,4]triazolo[1,5-a][1,3,5]triazin-5-yl)pyrrolidin-2-yl)(4-phenylpiperazin-1-yl)methanone], the IC50 is 13 nM. Under `CCC1CCC(N2CCN(C(=O)[C@@H]3CCCN3c3nc(N)n4nc(-c5ccco5)nc4n3)CC2)CC1` (stereo partly drawn) [Example 152, (S)-(1-(7-amino-2-(furan-2-yl)-[1,2,4]triazolo[1,5-a][1,3,5]triazin-5-yl)pyrrolidin-2-yl)(4-(4-ethylcyclohexyl)piperazin-1-yl) methanone] stands 19 nM; under `CC(C)C1CCC(N2CCN(C(=O)[C@@H]3CCCN3c3nc(N)n4nc(-c5ccco5)nc4n3)CC2)CC1` (stereo partly drawn) [Example 153, (S)-(1-(7-amino-2-(furan-2-yl)-[1,2,4]triazolo[1,5-a][1,3,5]triazin-5-yl)pyrrolidin-2-yl)(4-(4-isopropylcyclohexyl)piperazin-1-yl)methanone], 12 nM. `CC(C)(C)C1CCC(N2CCN(C(=O)[C@@H]3CCCN3c3nc(N)n4nc(-c5ccco5)nc4n3)CC2)CC1` (stereo partly drawn) [Example 154, (S)-(1-(7-amino-2-(furan-2-yl)-[1,2,4]triazolo[1,5-a][1,3,5]triazin-5-yl)pyrrolidin-2-yl)(4-(4-(tert-butyl)cyclohexyl)piperazin-1-yl)methanone] registered an IC50 of 10 nM. `Nc1nc(N2CCC[C@H]2C(=O)N2CCN(C3CCC(C(F)(F)F)CC3)CC2)nc2nc(-c3ccco3)nn12` (stereo partly drawn) [Example 155, (S)-(1-(7-amino-2-(furan-2-yl)-[1,2,4]triazolo[1,5-a][1,3,5]triazin-5-yl)pyrrolidin-2-yl)(4-(4-(trifluoromethyl)cyclohexyl)piperazin-1-yl)methanone] displayed an IC50 of 11 nM. `Nc1nc(N2CCC[C@H]2C(=O)N2CCN(C3CC4CCC3C4)CC2)nc2nc(-c3ccco3)nn12` (stereo partly drawn) [Example 156, ((S)-1-(7-amino-2-(furan-2-yl)-[1,2,4]triazolo[1,5-a][1,3,5]triazin-5-yl)pyrrolidin-2-yl)(4-(bicyclo[2.2.1]heptan-2-yl)piperazin-1-yl)methanone] registered an IC50 of 12 nM. Under `Nc1nc(N2CCC[C@H]2C(=O)N2CC3CCC(C2)N3C(=O)c2ccccc2)nc2nc(-c3ccco3)nn12` [Example 157, (3-((7-amino-2-(furan-2-yl)-[1,2,4]triazolo[1,5-a][1,3,5]triazin-5-yl)-L-prolyl)-3,8-diazabicyclo[3.2.1]octan-8-yl)(phenyl)methanone] stands 6 nM.

Take `Nc1nc(N2CCC[C@H]2C(=O)N2C3CCC2CN(C(=O)c2ccccc2)C3)nc2nc(-c3ccco3)nn12` [Example 158, (8-((7-amino-2-(furan-2-yl)-[1,2,4]triazolo[1,5-a][1,3,5]triazin-5-yl)-L-prolyl)-3,8-diazabicyclo[3.2.1]octan-3-yl)(phenyl)methanone]: the IC50 came to 12 nM.

In general, IC50 refers to the midpoint of a concentration-inhibition curve. Low readings indicate greater potency in that assay, high ones weaker potency in that assay.
